PMC12406196, “Anticoronavirus Activity of Uridine Glycoconjugates Containing a 1,2,3-Triazole Moiety” (Journal of Medicinal Chemistry, 2025)
Entries after “also recorded” stand apart in the source; their conditions may differ. Like-named read-outs stand apart in the source and are kept apart here.

Columns and labels:
[1] = MTS-based cell viability assay in LR7 cells; parameters: species or system mouse; conditions: mouse, LR7 cells, 48 h, 0–100 μM, read-out: CC50 (MHV block)
Description: (§1) LR7, LLC-Mk2 or Vero cells were seeded in 96-well plates and cultured overnight. Next, the medium was changed to a new one supplemented with different concentrations (in triplicate) of analyzed compounds. Following the 2 days (LR7 and Vero) or 4 days (LLC-Mk-2) of incubation, CellTiter 96 AQueous nonradioactive cell proliferation assay (Promega) was performed according to the manufacturer’s instruction. The half-maximal cytotoxic concentration (CC50) was calculated as the concentration of a compound needed to reduce cell viability by 50% using GraphPad Prism software (version 5.01, GraphPad Software, San Diego, CA).

LR7 cells = assay: MTS-based cell viability assay in LR7 cells; parameters: species or system mouse; conditions: 50 μM, uninfected LR7 cells
Description: as §1

[2] = MTS-based cell viability assay in LLC-Mk2 cells; conditions: Macaca mulatta, read-out: CC50 (HCoV-NL63 block)
Description: as §1

[3] = MTS-based cell viability assay in Vero cells; conditions: African green monkey, 96 h per table footnote, read-out: CC50 (SARS-CoV-2 block)
Description: as §1

[4] = tested on: murine hepatitis virus strain A59 (MHV); assay: Reduction of MHV cytopathic effect (CPE) in LR7 cells, MTS/PMS readout; type: cell-based; conditions: for protection against MHV-induced CPE: 50 μM, MOI 0.01, 24 h; for concentration above which MHV-induced CPE was significantly reduced: MOI 0.01, 24 h p.i.
Description: LR7 cells were seeded in a 96-well plate and cultured overnight. Next, the cells were infected with MHV at an MOI value of 0.01 in medium without FBS. Following 1 h of incubation, the medium containing the virus was collected and cells were covered with a medium supplemented with different concentrations (in triplicate) of the analyzed compounds or DMSO. 24 h p.i. cells viability was evaluated by CellTiter 96 AQueous nonradioactive cell proliferation assay (Promega) according to the manufacturer’s instruction.

[5] = tested on: murine hepatitis virus strain A59 (MHV); assay: MHV titer in medium of infected LR7 cells, plaque assay; type: cell-based; conditions: for IC50: Murine coronavirus, read-out: IC50 (MHV)
Description: LR7 or LLC-Mk2 cells were infected at a MOI of 0.01 with MHV and HCoV-NL63, respectively, and treated with selected compounds at a concentration ranging from 0 to 50 μM. Culture supernatants were collected 1 day (MHV) or 4 days (HCoV-NL63) after infection. Virus titer was determined by plaque assay.
(§2) The half-maximum inhibitory concentration value (IC50) indicating the concentration of compound needed to reduce virus titer by 50% in comparison to the control, was evaluated by GraphPad software (version 5.01, GraphPad Software, San Diego, CA).

[6] = tested on: human coronavirus strain NL63 (HCoV-NL63); assay: HCoV-NL63 N protein expression in LLC-Mk2 cells, Western blot and densitometry; type: cell-based; conditions: for HCoV-NL63 N protein level: 50 μM, MOI 0.01, 4 days p.i., Western blot/densitometry
Description: LLC-Mk2 monolayers grown in 24-well plates were infected with HCoV-NL63 at an MOI value of 0.01 for 2 h. Unbound virus was removed, and cells were cultured in medium supplemented with different concentrations of compounds. Four days postinfection, cells were collected and lysed in CellLyticM Cell Lysis Reagent (Sigma). Following the protein separation by SDS-PAGE and transfer to PVDF membranes, proteins were immunoblotted using specific mouse anti-N NL63 Abs (Eurofins, Spain) or rabbit anti-β-catenin Abs (Santa Cruz), followed by antimouse or antirabbit secondary antibodies conjugated with HRP. Proteins were visualized and analyzed by chemiluminescence using the UVITEC Cambridge Alliance MINI HD detection system. The densitometric analysis of cells treated with 50 μM dose of a panel of glycoconjugates was performed based on three biological replicates of N and β-catenin immunoblots. The N protein levels were expressed as a percentage relative to DMSO-treated infected cells, while β-catenin levels were expressed as a percentage relative to noninfected control cells. The data were presented as the ratio of N/β-catenin for each sample, normalized accordingly.

[7] = tested on: human coronavirus strain NL63 (HCoV-NL63); assay: HCoV-NL63 titer in medium of infected LLC-Mk2 cells, foci-forming assay; type: cell-based; conditions: for IC50: read-out: IC50 (HCoV-NL63); for antiviral efficacy against HCoV-NL63 compared with compound 24: dose-response 0–25 μM
Description: LR7 or LLC-Mk2 cells were infected at a MOI of 0.01 with MHV and HCoV-NL63, respectively, and treated with selected compounds at a concentration ranging from 0 to 50 μM. Culture supernatants were collected 1 day (MHV) or 4 days (HCoV-NL63) after infection. […]
as §2

SARS-CoV-2 = SARS-CoV-2 infectivity in supernatants of infected Vero cells, plaque assay; type: cell-based; conditions: for IC50: read-out: IC50 (SARS-CoV-2)
Description: Vero cells were seeded in appropriate plates and allowed to reach an approximately 90% confluence. For infection, 200 μL of viral suspension containing 10^5 pfu (SARS-CoV-2 strain SARS-CoV-2/human/Czech Republic/951/2020) was added to each well and incubated for 2 h at 37 °C to allow virus adsorption. After the incubation, the viral medium was removed, and the wells were washed gently with phosphate-buffered saline (PBS). Test compounds were prepared in serial dilutions to final concentrations of 50, 25, 12.5, 6.25, 3.125, and 0 μM in the medium (DMEM containing 2% FBS). The compounds were added in quadruplicate to the infected cells. The plates were then incubated for 48 h at 37 °C. Following the 48 h treatment period, the supernatants were removed, and plaque assays in Vero E6 cells were performed to assess viral titers. Cells were fixed and stained 4 days after infection to visualize plaques, as described previously.
as §2

[8] = tested on: SC-VLP entry into HEK-hACE2 cells; assay: SARS-CoV-2 VLP (SC-VLP) internalization assay in HEK-hACE2 cells, luciferase; type: cell-based; conditions: 12.5 μM during SC-VLP production
HCoV-NL63 RNA synthesis = assay: HCoV-NL63 RNA level in infected LLC-Mk2 cells, RT-PCR; type: cell-based, human coronavirus NL63; conditions: MOI 0.01, 96 h p.i.
Description: LR7 or LLC-Mk2 were cultured in 12-well plate overnight. Next, LR7 cells were infected with MHV at an MOI value of 1 for 1 h or LLC-Mk2 cells were infected with HCoV-NL63 at an MOI value of 0.01 for 2 h. Following removal of unbound virus, cells were cultured with medium supplemented with different concentrations of selected compounds. 8 h p.i. (MHV) or 96 h p.i. (HCoV-NL63) cells were collected and total RNA was isolated by CoV RNA kit (A&A Biotechnology, Poland) according to the manufacturer’s instruction. To evaluate levels of viral RNA in infected cells Qiagen One-Step RT-PCR reaction was performed. Following reverse transcription, the PCR reaction was carried out using primers: F: […], R: […] for amplification of a fragment of HCoV-NL63 genome (position: 26418–26960 bp NC_005831.2) and F: […] and R: […] for amplification of a fragment of MHV genome (position: 30341–30902 bp FJ647225.1). For internal control fragment of β-actin mRNA was reverse transcribed and amplified using primers For: […] and Rev: […].

SARS-CoV-2 replicon = type: cell-based
[9] = LR7, supplementary CSV, decimal comma
[10] = Severe acute respiratory syndrome coronavirus 2, Vero, supplementary CSV, decimal comma
[11] = virus titer released from LR7 cells, MOI 0.01, 24 h p.i., plaque assay
[12] = 96 h, virus titer released from LLC-Mk2 cells, MOI 0.01, 4 days p.i.
[13] = Severe acute respiratory syndrome coronavirus 2, Vero cells, supernatant 48 h after infection, plaque assay

CC(=O)OC[C@H]1O[C@@H](OCc2cn(C[C@H]3O[C@@H](n4ccc(=O)[nH]c4=O)[C@H](O[Si](C)(C)C(C)(C)C)[C@@H]3O[Si](C)(C)C(C)(C)C)nn2)[C@H](OC(C)=O)[C@@H](OC(C)=O)[C@H]1OC(C)=O [Compound 15, 2′,3′-di-O-tert-Butyldimethylsilyl-5′-deoxy-5′-[4-(2″,3″,4″,6″-tetra-O-acetyl-β-D-galactopyranosyloxymethyl)-1,2-3-triazol-1-yl]-uridine]
CC50 at 48 h [1]: 134 µM
reduction of cell viability (cytotoxicity in uninfected cells) (LR7 cells): 10–30%
CC50 at 96 h [2]: 49.8 µM
CC50 at 96 h [3]: > 100 µM
protection against MHV-induced CPE [4]: significantly reduced cell death
concentration above which MHV-induced CPE was significantly reduced [4]: above 12.5 μM
IC50 ([5]; LR7, 24 h): 7.6 µM
IC50 [5, 9]: 7.62 µM
HCoV-NL63 N protein level [6]: significantly reduced; also recorded: No N protein was detected
IC50 ([7]; LLC-MK2, 96 h): 6.8 µM
IC50 ([7]; LLC-MK2, supplementary CSV, decimal comma): 6.79 µM
antiviral efficacy against HCoV-NL63 compared with compound 24 ([7]; LLC-Mk2 cells): slightly lower activity
IC50 (SARS-CoV-2; Severe acute respiratory syndrome coronavirus 2, Vero, 48 h): ~27.4 µM
IC50 (SARS-CoV-2; [10]): 27.4 µM
reduction of SC-VLP entry compared with the control [8]: 80%
concentration that effectively suppressed HCoV-NL63 RNA synthesis (HCoV-NL63 RNA synthesis): 12.5 µM

CC(=O)OC[C@H]1O[C@@H](SCc2cn(C[C@H]3O[C@@H](n4ccc(=O)[nH]c4=O)[C@H](O[Si](C)(C)C(C)(C)C)[C@@H]3O[Si](C)(C)C(C)(C)C)nn2)[C@H](OC(C)=O)[C@@H](OC(C)=O)[C@@H]1OC(C)=O [Compound 20, 2′,3′-di-O-tert-Butyldimethylsilyl-5′-deoxy-5′-[4-(2″,3″,4″,6″-tetra-O-acetyl-β-D-glucopyranosylthiomethyl)-1,2-3-triazol-1-yl]-uridine]
CC50 at 48 h [1]: > 100 µM
reduction of cell viability (cytotoxicity in uninfected cells) (LR7 cells): no detectable toxicity
CC50 at 96 h [2]: > 100 µM
CC50 at 96 h [3]: > 100 µM
protection against MHV-induced CPE [4]: significantly reduced cell death; also recorded: nearly eliminating CPE
concentration above which MHV-induced CPE was significantly reduced [4]: above 6.25 μM
IC50 [5, 9]: 11.3 µM
IC50 [5, 11]: 11.3 µM
HCoV-NL63 N protein level [6]: significantly reduced; also recorded: reduction of N, as well as β-catenin levels
IC50 [7, 12]: 5.5 µM
antiviral efficacy against HCoV-NL63 compared with compound 24 ([7]; LLC-Mk2 cells): slightly lower activity
reduction in SARS-CoV-2 viral titers (SARS-CoV-2; 25 μM, Vero cells): highest level of activity
IC50 (SARS-CoV-2; [10]): 16.2 µM
IC50 (SARS-CoV-2; [13]): ~16.2 µM
concentration that effectively suppressed HCoV-NL63 RNA synthesis (HCoV-NL63 RNA synthesis): 6.25 µM
inhibition of SARS-CoV-2 replication (replicon) (SARS-CoV-2 replicon): inhibited SARS-CoV-2 replication; also recorded: effectively suppressed SARS-CoV-2 replication; also recorded: partial

CC(=O)OC[C@H]1O[C@@H](SCn2cc(COC[C@H]3O[C@@H](n4ccc(=O)[nH]c4=O)[C@H](O[Si](C)(C)C(C)(C)C)[C@@H]3O[Si](C)(C)C(C)(C)C)nn2)[C@H](OC(C)=O)[C@@H](OC(C)=O)[C@@H]1OC(C)=O [Compound 24, 2′,3′-di-O-tert-Butyldimethylsilyl-5′-O-[(1-(2″,3″,4″,6″-tetra-O-acetyl-β-D-glucopyranosylthiomethyl)-1,2-3-triazol-4-yl)-methyl]-uridine]
CC50 at 48 h [1]: > 100 µM
reduction of cell viability (cytotoxicity in uninfected cells) (LR7 cells): 10–30%
CC50 at 96 h [2]: 59.1 µM
CC50 at 96 h [3]: > 100 µM
protection against MHV-induced CPE [4]: significantly reduced cell death
concentration above which MHV-induced CPE was significantly reduced [4]: above 12.5 μM
dose above which no virus was detectable (MHV titer) ([5]; LR7 cells, 24 h p.i., plaque assay): above 6.25 μM
IC50 [5, 11]: 3.7 µM
HCoV-NL63 N protein level [6]: significantly reduced; also recorded: No N protein was detected
dose above which HCoV-NL63 viral protein expression was completely inhibited ([6]; 4 days p.i., immunoblot): above 6.25 μM
IC50 [7, 12]: 3.1 µM
dose above which HCoV-NL63 viral release was completely inhibited ([7]; LLC-Mk2 cells, 4 days p.i., foci-forming assay): above 6.25 μM
IC50 (SARS-CoV-2; [10]): 18.7 µM
IC50 (SARS-CoV-2; [13]): ~18.7 µM
concentration that effectively suppressed HCoV-NL63 RNA synthesis (HCoV-NL63 RNA synthesis): 6.25 µM
inhibition of SARS-CoV-2 replication (replicon) (SARS-CoV-2 replicon): inhibited SARS-CoV-2 replication; also recorded: effectively suppressed SARS-CoV-2 replication; also recorded: partial
